IC50 data for 49 molecules are collected here from patent US10829499B2, “Tetracyclic heterocycle compounds useful as HIV integrase inhibitors” (MERCK SHARP & DOHME CORP., priority 2016, dated 2020).

Read-outs that look alike come from different tables or passages of the source.

The experiment deals with HIV-1 (NL4-3 strain). Briefly: Assay for Inhibition of HIV Replication (kinetic assay, MT4-gag-GFP reporter cell line; VIKING). Type of experiment: cell-based. The procedure, abridged: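 MT4-gag-GFP cells infected with HIV-1 NL4-3 at low MOI for 24 h were seeded with compound (0.4% DMSO) in medium with 0%, 10% or 100% normal human serum. GFP-positive cells were counted at 24 and 48 h, and R0 was the 48 h/24 h ratio. Inhibition was scaled to DMSO and triple-drug controls, and IC50 came from 4-parameter fits.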

Where [1] appears, read: Human immunodeficiency virus 1, NL43, MT4-GFP cells infected with HIV-1 NL4-3, 0% normal human serum (NHS), read-out: VIKING IP50 (nM) with 0% NHS.
[2] abbreviates: Human immunodeficiency virus 1, NL43, MT4-GFP cells infected with HIV-1 NL4-3, 100% normal human serum (NHS), read-out: VIKING IP50 (nM) with 100% NHS.
[3] abbreviates: MT4-GFP cells infected with HIV-1 NL4-3, 0% normal human serum (NHS), read-out: VIKING IP50 (nM) with 0% NHS.
[4] abbreviates: MT4-GFP cells infected with HIV-1 NL4-3, 100% normal human serum (NHS), read-out: VIKING IP50 (nM) with 100% NHS.

On to `C[C@H]1CN2C(=O)c3c(O)c(=O)c(C(=O)NCc4cccc(Cl)c4F)c4n3C(CC4)C2N1C` (some centres unmarked) [Compound 102], for which the IC50 under setting [1] stood at 1.05 nM and the IC50 under setting [2] was found to be 579 nM.
Take `C[C@H]1CN2C(=O)c3c(O)c(=O)c(C(=O)NCc4cccc(Cl)c4F)c4n3C(CC4)C2N1C` (some centres unmarked) [Compound 103]: the IC50 was 1.45 nM under setting [3] and 15.4 nM under setting [4].
Taken in the same sequence, the figures for `C[C@H]1CN2C(=O)c3c(O)c(=O)c(C(=O)NCc4cccc(Cl)c4F)c4n3C(CC4)C2N1C` (some centres unmarked) [Compound 104] were 0.397 nM and 71.4 nM.
For `C[C@H]1CN2C(=O)c3c(O)c(=O)c(C(=O)NCc4cccc(Cl)c4F)c4n3C(CC4)C2N1C` (some centres unmarked) [Compound 105], in that order: 0.495 nM and 32.6 nM.
In the case of `CC(C)N1C2C3CCc4c(C(=O)NCc5cccc(Cl)c5F)c(=O)c(O)c(n43)C(=O)N2C[C@@H]1C` (some centres unmarked) [Compound 106], the IC50 by setting is: under setting [1], 3.68 nM; under setting [2], 88.9 nM.
In the case of `CCCN1C2C3CCc4c(C(=O)NCc5cccc(Cl)c5F)c(=O)c(O)c(n43)C(=O)N2C[C@@H]1C` (some centres unmarked) [Compound 107], the IC50 reads like this: under setting [3], 2.82 nM; under setting [4], 272 nM.
Regarding `CCCN1C2C3CCc4c(C(=O)NCc5cccc(Cl)c5F)c(=O)c(O)c(n43)C(=O)N2C[C@@H]1C` (some centres unmarked) [Compound 108], the IC50 stood at 1.17 nM under setting [3] and 80.1 nM under setting [4].
`C[C@H]1CN(C)C2C3CCc4c(C(=O)NCc5cccc(Cl)c5F)c(=O)c(O)c(n43)C(=O)N21` (some centres unmarked) [Compound 109]: the IC50 reads like this: under setting [1], 1.17 nM; under setting [4], 480 nM.
Regarding `C[C@H]1CN(C)C2C3CCc4c(C(=O)NCc5cccc(Cl)c5F)c(=O)c(O)c(n43)C(=O)N21` (some centres unmarked) [Compound 110], the IC50 by setting is: under setting [3], 0.733 nM; under setting [4], 67.8 nM.
For the molecule `CCN1C[C@H](C)N2C(=O)c3c(O)c(=O)c(C(=O)NCc4cccc(Cl)c4F)c4n3C(CC4)C12` (some centres unmarked) [Compound 111], the IC50 is, setting by setting: under setting [1], 1.19 nM; under setting [4], 260 nM.
On to `CCN1C[C@H](C)N2C(=O)c3c(O)c(=O)c(C(=O)NCc4cccc(Cl)c4F)c4n3C(CC4)C12` (some centres unmarked) [Compound 112], for which the IC50 was 0.806 nM under setting [3] and 40.4 nM under setting [4].
With `CCCN1C[C@H](C)N2C(=O)c3c(O)c(=O)c(C(=O)NCc4cccc(Cl)c4F)c4n3C(CC4)C12` (some centres unmarked) [Compound 113], the IC50 is 3.58 nM under setting [1] and 291 nM under setting [2].
With `CCCN1C[C@H](C)N2C(=O)c3c(O)c(=O)c(C(=O)NCc4cccc(Cl)c4F)c4n3C(CC4)C12` (some centres unmarked) [Compound 114], the IC50 was 6.36 nM under setting [3] and 175 nM under setting [4].
Take `CC(C)N1C[C@H](C)N2C(=O)c3c(O)c(=O)c(C(=O)NCc4cccc(Cl)c4F)c4n3C(CC4)C12` (some centres unmarked) [Compound 115]: the IC50 by setting is: under setting [1], 7.4 nM; under setting [2], 113 nM.
Turning to `C[C@H]1CN(S(C)(=O)=O)C2C3CCc4c(C(=O)NCc5cccc(Cl)c5F)c(=O)c(O)c(n43)C(=O)N21` (some centres unmarked) [Compound 117], the IC50 amounted to 3.78 nM under setting [1] and 130 nM under setting [2].
`C[C@H]1CN2C(=O)c3c(O)c(=O)c(C(=O)NCc4cccc(Cl)c4F)c4n3C(CC4)C2N1S(C)(=O)=O` (some centres unmarked) [Compound 118]: the IC50 came out at 8.73 nM under setting [1] and 1280 nM under setting [4].
Consider `C[C@H]1CN2C(=O)c3c(O)c(=O)c(C(=O)NCc4cccc(Cl)c4F)c4n3C(CC4)C2N1S(C)(=O)=O` (some centres unmarked) [Compound 119], for which the IC50 was 8.77 nM under setting [3] and 445 nM under setting [4].
For the molecule `CC(=O)N1C[C@H](C)N2C(=O)c3c(O)c(=O)c(C(=O)NCc4cccc(Cl)c4F)c4n3C(CC4)C12` (some centres unmarked) [Compound 120], the IC50 came out at 1.19 nM under setting [3] and 24.5 nM under setting [4].
On to `CC(=O)N1C[C@H](C)N2C(=O)c3c(O)c(=O)c(C(=O)NCc4cccc(Cl)c4F)c4n3C(CC4)C12` (some centres unmarked) [Compound 121], for which the IC50 under setting [1] was found to be 1.45 nM and the IC50 under setting [2] was 308 nM.
On to `CC(=O)N1C2C3CCc4c(C(=O)NCc5cccc(Cl)c5F)c(=O)c(O)c(n43)C(=O)N2C[C@@H]1C` (some centres unmarked) [Compound 122], for which the IC50 is, setting by setting: under setting [1], 2.17 nM; under setting [2], 30.1 nM.
For `CC(=O)N1C2C3CCc4c(C(=O)NCc5cccc(Cl)c5F)c(=O)c(O)c(n43)C(=O)N2C[C@@H]1C` (some centres unmarked) [Compound 123], the IC50 by setting is: under setting [3], 2.56 nM; under setting [4], 58.6 nM.
In the case of `COC1CC2C3N(C)CCN3C(=O)c3c(O)c(=O)c(C(=O)NCc4ccc(F)cc4F)c1n32` (centres unmarked) [Compound 124], the IC50 by setting is: under setting [3], 7.41 nM; under setting [4], 28 nM.
`COC1CC2C3N(C)CCN3C(=O)c3c(O)c(=O)c(C(=O)NCc4ccc(F)cc4F)c1n32` (centres unmarked) [Compound 125]: the IC50 is, setting by setting: under setting [3], 10.3 nM; under setting [4], 57.7 nM.
For `COC1CC2C3N(C)CCN3C(=O)c3c(O)c(=O)c(C(=O)NCc4ccc(F)cc4F)c1n32` (centres unmarked) [Compound 126], the IC50 under setting [3] turned out to be 2.42 nM and the IC50 under setting [4] is 211 nM.
For `COC1CC2C3N(C)CCN3C(=O)c3c(O)c(=O)c(C(=O)NCc4ccc(F)cc4F)c1n32` (centres unmarked) [Compound 127], in that order: 1.2 nM and 11.7 nM.
On to `C[C@H]1CNC2C3CCc4c(-c5nnc(Cc6ccc(F)cc6F)s5)c(=O)c(O)c(n43)C(=O)N21` (some centres unmarked) [Compound 128], for which the IC50 by setting is: under setting [2], 361 nM; under setting [3], 6.69 nM.
For `C[C@H]1CNC2C3CCc4c(-c5nnc(Cc6ccc(F)cc6F)s5)c(=O)c(O)c(n43)C(=O)N21` (some centres unmarked) [Compound 129], the IC50 reads like this: under setting [3], 15.3 nM; under setting [4], 283 nM.
With `C[C@H]1CN2C(=O)c3c(O)c(=O)c(-c4nnc(Cc5ccc(F)cc5F)s4)c4n3C(CC4)C2N1` (some centres unmarked) [Compound 130], the IC50 is 3.53 nM under setting [1] and 92.8 nM under setting [4].
On to `C[C@H]1CN2C(=O)c3c(O)c(=O)c(-c4nnc(Cc5ccc(F)cc5F)s4)c4n3C(CC4)C2N1` (some centres unmarked) [Compound 131], for which the IC50 reads like this: under setting [3], 2.33 nM; under setting [4], 36.1 nM.
Regarding `CC12OCCCN1C(=O)c1c(O)c(=O)c(C(=O)NCc3ccc(F)cc3F)c3n1C2CC3` (centres unmarked) [Compound 133], the IC50 is, setting by setting: under setting [1], 0.93 nM; under setting [4], 617 nM.
Consider `CC12OCCCN1C(=O)c1c(O)c(=O)c(C(=O)NCc3ccc(F)cc3F)c3n1C2CC3` (centres unmarked) [Compound 134], for which the IC50 under setting [3] stood at 1.29 nM and the IC50 under setting [4] amounted to 20.5 nM.
For `CC12OCCCN1C(=O)c1c(O)c(=O)c(C(=O)NCc3ccc(F)cc3F)c3n1C2CC3` (centres unmarked) [Compound 135], in that order: 0.791 nM and 1280 nM.
For `CC12NCCN1C(=O)c1c(O)c(=O)c(C(=O)NCc3ccc(F)cc3F)c3n1C2CC3` (centres unmarked) [Compound 138], in that order: 2.41 nM and 27 nM.
For `CN1CCN2C(=O)c3c(O)c(=O)c(C(=O)NCc4ccc(F)cc4F)c4n3C(CC4)C12C` (centres unmarked) [Compound 140], in that order: 0.557 nM and 11.3 nM.
As for `CN1CCCN2C(=O)c3c(O)c(=O)c(C(=O)NCc4ccc(F)cc4F)c4n3C(CC4)C12C` (centres unmarked) [Compound 142], the IC50 came to 0.504 nM under setting [3] and 9.41 nM under setting [4].
Take `O=C(NCc1cccc(Cl)c1F)c1c2n3c(c(O)c1=O)C(=O)N1C4CCC(C4)OC1C3CC2` (centres unmarked) [Compound 152]: the IC50 worked out at 5.52 nM under setting [1] and 2100 nM under setting [4].
As for `O=C(NCc1cccc(Cl)c1F)c1c2n3c(c(O)c1=O)C(=O)N1C4CCC(C4)OC1C3CC2` (centres unmarked) [Compound 153], the IC50 by setting is: under setting [3], 4.53 nM; under setting [4], 95.5 nM.
As for `O=C(NCc1cccc(Cl)c1F)c1c2n3c(c(O)c1=O)C(=O)N1C4CCC(C4)OC1C3CC2` (centres unmarked) [Compound 154], the IC50 under setting [3] was 4.14 nM and the IC50 under setting [4] amounted to 79.2 nM.
Taken in the same sequence, the figures for `O=C(NCc1cccc(Cl)c1F)c1c2n3c(c(O)c1=O)C(=O)N1C4CCC(C4)OC1C3CC2` (centres unmarked) [Compound 155] were 2.77 nM and 7460 nM.
On to `O=C(NCc1ccc(F)c(Cl)c1F)c1c2n3c(c(O)c1=O)C(=O)N1C4CCC(C4)OC1C3CC2` (centres unmarked) [Compound 156], for which the IC50 is, setting by setting: under setting [3], 11.8 nM; under setting [4], 5270 nM.
On to `O=C(NCc1ccc(F)c(Cl)c1F)c1c2n3c(c(O)c1=O)C(=O)N1C4CCC(C4)OC1C3CC2` (centres unmarked) [Compound 157], for which the IC50 reads like this: under setting [3], 12.9 nM; under setting [4], 733 nM.
Turning to `O=C(NCc1ccc(F)c(Cl)c1F)c1c2n3c(c(O)c1=O)C(=O)N1C4CCC(C4)OC1C3CC2` (centres unmarked) [Compound 158], the IC50 reads like this: under setting [3], 4 nM; under setting [4], 16100 nM.
Taken in the same sequence, the figures for `O=C(NCc1ccc(F)c(Cl)c1F)c1c2n3c(c(O)c1=O)C(=O)N1C4CCC(C4)OC1C3CC2` (centres unmarked) [Compound 159] were 5.85 nM and 89.3 nM.
For `O=C(NCc1ccc(F)cc1)c1c2n3c(c(O)c1=O)C(=O)N1C4CCC(C4)OC1C3CC2` (centres unmarked) [Compound 160], the IC50 reads like this: under setting [1], 4.14 nM; under setting [4], 73.1 nM.
With `O=C(NCc1ccc(F)cc1)c1c2n3c(c(O)c1=O)C(=O)N1C4CCC(C4)OC1C3CC2` (centres unmarked) [Compound 161], the IC50 is, setting by setting: under setting [3], 2.67 nM; under setting [4], 5510 nM.
For `O=C(NCc1ccc(F)cc1)c1c2n3c(c(O)c1=O)C(=O)N1C4CCC(C4)OC1C3CC2` (centres unmarked) [Compound 162], the IC50 under setting [3] is 3.9 nM and the IC50 under setting [4] was 50.4 nM.
Taken in the same sequence, the figures for `O=C(NCc1ccc(F)cc1)c1c2n3c(c(O)c1=O)C(=O)N1C4CCC(C4)OC1C3CC2` (centres unmarked) [Compound 163] were 4.32 nM and 1660 nM.
With `O=C(NCc1cccc(F)c1F)c1c2n3c(c(O)c1=O)C(=O)N1C4CCC(C4)OC1C3CC2` (centres unmarked) [Compound 164], the IC50 reads like this: under setting [1], 4.89 nM; under setting [4], 1390 nM.
Take `O=C(NCc1cccc(F)c1F)c1c2n3c(c(O)c1=O)C(=O)N1C4CCC(C4)OC1C3CC2` (centres unmarked) [Compound 165]: the IC50 runs as follows: under setting [3], 6.42 nM; under setting [4], 56.1 nM.
